Tested on: SF-268
Test: Cytotoxicity against human SF268 cells
Assay type: functional

Q: `CC(=O)OC(C)(C)/C=C/C(=O)[C@](C)(O)[C@H]1[C@H](O)C[C@@]2(C)[C@@H]3CC=C4[C@@H](C[C@H](O)[C@@H](O)C4(C)C)[C@]3(C)C(=O)C[C@]12C` was tested. Which GI50 did it give?
A: The GI50 was 87 nM.

Q: With `CC(C)(O)/C=C/C(=O)[C@](C)(O)[C@H]1[C@H](O)C[C@@]2(C)[C@@H]3CC=C4[C@@H](CCC(=O)C4(C)C)[C@]3(C)C(=O)C[C@]12C` as the molecule, how does the GI50 read?
A: Its GI50 is 210 nM.

Q: `CC(C)(O)/C=C/C(=O)[C@](C)(O)[C@H]1[C@H](O)C[C@@]2(C)[C@@H]3CC=C4[C@@H](C[C@H](O)C(=O)C4(C)C)[C@]3(C)C(=O)C[C@]12C` [CUCURBITACIN D] was tested. Which GI50 did it give?
A: The GI50 was 21 nM.

Tested on: NCI-H460
Test: Cytotoxicity against human H460 cells
Assay type: functional

Q: With `CC(=O)OC(C)(C)/C=C/C(=O)[C@](C)(O)[C@H]1[C@H](O)C[C@@]2(C)[C@@H]3CC=C4[C@@H](C[C@H](O)[C@@H](O)C4(C)C)[C@]3(C)C(=O)C[C@]12C` as the molecule, how does the GI50 read?
A: The GI50 was 65 nM.

Q: Which GI50 does the source give for `CC(C)(O)/C=C/C(=O)[C@](C)(O)[C@H]1[C@H](O)C[C@@]2(C)[C@@H]3CC=C4[C@@H](CCC(=O)C4(C)C)[C@]3(C)C(=O)C[C@]12C` here?
A: Its GI50 is 32 nM.

Q: For `CC(C)(O)/C=C/C(=O)[C@](C)(O)[C@H]1[C@H](O)C[C@@]2(C)[C@@H]3CC=C4[C@@H](C[C@H](O)C(=O)C4(C)C)[C@]3(C)C(=O)C[C@]12C` [CUCURBITACIN D], which GI50 is on record?
A: Its GI50 is 13 nM.

Tested on: MCF7
Test: Cytotoxicity against human MCF7 cells
Assay type: functional

Q: With `CC(=O)OC(C)(C)/C=C/C(=O)[C@](C)(O)[C@H]1[C@H](O)C[C@@]2(C)[C@@H]3CC=C4[C@@H](C[C@H](O)[C@@H](O)C4(C)C)[C@]3(C)C(=O)C[C@]12C` as the molecule, how does the GI50 read?
A: The GI50 was 110 nM.

Q: `CC(C)(O)/C=C/C(=O)[C@](C)(O)[C@H]1[C@H](O)C[C@@]2(C)[C@@H]3CC=C4[C@@H](CCC(=O)C4(C)C)[C@]3(C)C(=O)C[C@]12C` was tested. Which GI50 did it give?
A: The GI50 was 41 nM.

Q: How did the GI50 turn out when `CC(C)(O)/C=C/C(=O)[C@](C)(O)[C@H]1[C@H](O)C[C@@]2(C)[C@@H]3CC=C4[C@@H](C[C@H](O)C(=O)C4(C)C)[C@]3(C)C(=O)C[C@]12C` [CUCURBITACIN D] was run?
A: The GI50 was 20 nM.

Reference: ChEMBL document CHEMBL1138432, “Cytotoxic cucurbitacin constituents from Sloanea zuliaensis” (2003)
